Reference: PMC11017252, “Copper(II) Complexes with 2,2′:6′,2″-Terpyridine Derivatives Displaying Dimeric Dichloro−μ–Bridged Crystal Structure: Biological Activities from 2D and 3D Tumor Spheroids to In Vivo Models” (Journal of Medicinal Chemistry, 2024)

Experiments:
[1] = tested on: HCT116DoxR (Dox-resistant colorectal carcinoma cell line); experiment: MTS cell viability assay, 2D culture, HCT116DoxR; conditions: read-out: IC50 (μM) HCT116DoxR, 48 h of exposure
Description: (§1) The in vitro cytotoxic potential of Cu(II) complexes in tumor and healthy cells was assessed using the MTS assay, a colorimetric method that allows the quantification of viable cells in culture.[46]
In this regard, cell viability was performed for each of the ligands on HCT116DoxR and fibroblasts.
Cell culture and maintenance
(§2) The cancer cell lines HCT116 (colorectal carcinoma) and A2780 (ovarian carcinoma) were obtained
(§3) from the American Type Culture Collection (ATCC®, Manassas, VA, USA), as well as the normal
human primary dermal fibroblasts.
(§4) Apart from the A2780 cell line, which was cultured in Roswell Park Memorial Institute (RPMI)
(§5) medium, all cells were cultured in Dulbecco’s modified Eagle medium (DMEM). Both media were
(§6) supplemented with 10% (v/v) fetal bovine serum (FBS) and 1% (v/v) of a Pen/Strep
(§7) (Penicillin/Streptomycin) solution. To maintain the resistant phenotype of the HCT116DoxR cell line,
(§8) the medium was additionally supplemented with 3.6 μM Dox4. All media and supplements were
(§9) purchased from Thermo Fischer Scientific (Waltham, MA, USA).
(§10) Cells were maintained in 25 cm2 T-flasks (T25) in a humidified atmosphere at 37 °C and 5% (v/v) CO
(§11) (SANYO CO2 Incubator, Electric Biomedical Co., Osaka, Japan).
(§12) The effect of Cu(II) complexes on cell viability was studied in HCT116, HCT116DoxR, and A2780
(§13) cancer cell lines and in normal human primary fibroblasts. Cells were seeded in a density of 0.75×105
(§14) cells/mL into 96-well plates and incubated in a humidified atmosphere at 37 °C and 5% (v/v) CO2 for
(§15) 24 h. After incubation, complexes were weighed, immediately solubilized in 100% (v/v) DMSO and
(§16) diluted for the final concentration with cell culture medium. The medium in each well was replaced by
(§17) a solution of fresh medium containing each Cu(II) complex (concentrations ranging from 0.01 μM to
(§18) as negative and positive controls, respectively.
(§19) Following a second incubation period of 48 h in the same conditions, the supernatant of each well was
(§20) replaced by a solution containing MTS reagent (3-(4,5-dimethylthiazol-2-yl)-5-(3-
(§21) carboxymethoxyphenyl)-2-(4-sulfophenyl)-2H-tetrazolium) provided by the CellTiter 96® AQueous
(§22) Non-Radioactive Cell Proliferation Assay Kit (Promega, Madison, WI, EUA) for a 30 minutes
(§23) incubation. The percentage of viable cells was indirectly determined by the spectrophotometric
(§24) quantification at 490 nm in a microplate reader, Tecan Infinite M200 (Tecan, Männedorf, Switzerland)
(§25) of formazan production, resultant from the reduction of the MTS reagent by mitochondrial
(§26) dehydrogenases. Since these enzymes are only active in viable cells, the absorbance value measured is
(§27) directly proportional to the percentage of viable cells in culture5.

[2] = tested on: normal human primary dermal fibroblasts; experiment: MTS cell viability assay, normal fibroblasts; format: cell-based; conditions: 48 h of exposure
Description: as §1
Cell culture and maintenance
as §2, §3
human primary dermal fibroblasts.
as §4, §5, §6, §7, §8, §9, §10, §11, §12, §13, §14, §15, §16, §17, §19, §20, §22, §23, §24, §25

pUC18 plasmid DNA = experiment: pDNA cleavage in vitro (agarose gel electrophoresis); format: biochemical, E. coli; conditions: for effect of control reagent alone on pUC18 / effect of NaN3 (singlet oxygen scavenger) on pDNA cleavage by the complex: 24 h; for effect of control reagent alone on pUC18: TBHP 20 μM, NaN3 50 μM; for concentration at which the interaction with pDNA reaches saturation / pDNA cleavage mode: 100 ng pUC18, 24 h; for pDNA cleavage mode: 5–100 μM complex; for effect of NaN3 (singlet oxygen scavenger) on pDNA cleavage by the complex: 50 μM complex + 50 μM NaN3
HCT116DoxR spheroids = experiment: MTS cell viability assay in 3D HCT116DoxR spheroids; format: cell-based, human; conditions: 6-day-old spheroids, 48 h of exposure
chicken embryos = experiment: Ex-ovo chick chorioallantoic membrane (CAM) assay; format: in vivo; conditions: IC50, vs DMSO control
fibroblasts = experiment: Cell migration (wound healing) assay; format: cell-based, human; conditions: 24 h; complexes at IC50, Dox 0.4 μM; vs DMSO
Source text: A wound healing assay was therefore carried out on fibroblasts to study the influence of the Cu(II) complexes on cell migration in vitro. Skin fibroblasts were the model chosen for this assay as they are essential for regenerating damage in this tissue.[85] […]
intrinsic binding constant Kb can be obtained from the ratio of the slope to the intercept of the linear fit of the plot [DNA]/[εa−εf] versus [DNA].
For emission quenching experiments, equimolar solution of ct-DNA and ethidium bromide (EB, Sigma Aldrich) was prepared and allowed to incubate for 2 h in the dark. The tested complexes were titrated into the formed EB–ct-DNA adduct and incubated for additional 30 min. The final concentration of the EB–ct-DNA adduct was 50 μM and the concentration of the complexes varied from 0 to 40 μM. The fluorescence spectra were recorded on FLS-980 spectrofluorometer (Edinburgh Instruments, Livingston, United Kingdom) with excitation wavelength 515 nm and emission wavelength of 620 nm. The apparent binding constant (Kapp) was calculated using the Equations : […]
where I0 and I are the fluorescence intensity in the absence and presence of the complexes; KSV is the Stern-Volmer quenching constant; [Q] is the concentration of the complexes; [Q1/2] is the concentration of the complex causing 50% reduction in the fluorescence intensity; K = 1×107 […]
conditions mentioned before until the presence of a confluent monolayer was detected. A scratch was made on the surface of each well using a sterile 200 μL micropipette tip and the cells were […]
Each plate was then incubated for 24 h in the same conditions mentioned before. […]
The width of each scratch in each image was measured via ImageJ software. […]
The ex-ovo CAM assay was performed to evaluate the copper(II) complexes’ effect on angiogenesis, as already described in literature11,12. […] Newly formed blood vessels were manually counted via ImageJ software. […]
All results were expressed as mean ± SEM of at least two independent biological assays, each obtained by technical duplicates, unless otherwise specified. […]

EB–ct-DNA adduct = experiment: Ethidium bromide displacement fluorescence assay; format: binding, calf; conditions: PBS; for apparent binding constant (Kapp): EB displacement, KEB = 1 × 10^7 M^–1; for Stern–Volmer quenching constant KSV: EB–ct-DNA, 0–40 μM complex
BAX and BCL-2 = BAX and BCL-2 protein expression by Western Blot; format: cell-based, human; conditions: HCT116DoxR, 48 h, IC50; normalized to β-actin
HCT116DoxR cells [3] = experiment: Annexin V-FITC/PI apoptosis assay by flow cytometry; conditions: 48 h; for cells (%) early apoptosis / cells (%) late apoptosis / cells (%) necrosis / cells (%) viable / percentage of apoptosis (early + late): complexes at IC50, Dox 6 μM, cisplatin 5 μM; for fold increase in apoptotic cells, normalized to DMSO: complexes at IC50, cisplatin 5 μM
Description: To evaluate the cell death mechanism involved in the cytotoxic effect of the selected complexes, a double-staining with Annexin V-FITC and PI was performed. […] The use of Annexin V conjugated with the fluorophore FITC allows the quantification of this interaction and subsequent identification of cells in apoptosis by flow cytometry. Furthermore, PI is a fluorophore that can intercalate with DNA and that can only enter the cell when the membrane is either compromised or ruptured, making it possible to identify cells undergoing late apoptosis and necrosis. Therefore, the double staining makes it possible to distinguish between viable cells (FITC^–; IP^–), those undergoing initial apoptosis (FITC^+; IP^–), those undergoing late apoptosis (FITC^+; IP^+), and those undergoing necrosis (FITC^–; IP^+).[55],[58]
Evaluation of apoptosis induction in HCT116DoxR cell line by flow cytometry The induction of apoptosis in HCT116DoxR cell line was evaluated by flow cytometry, using the
Annexin V-FITC Apoptosis Detection Kit (Thermo Fisher Scientific, Waltham, MA, USA). Cells
were seeded in 6-well plates at a cell density of 1×10^5 cells/mL and incubated for 24 h. Afterwards,
culture medium was replaced by medium with different Cu(II) complexes at their IC50 concentrations.
After 48 h of incubation, cells were washed with PBS 1x, detached from each well with TrypLETM
Express and washed again with PBS 1x. Cells were then resuspended in 1x annexin-binding buffer and
incubated at rt for 15 min with Annexin V-FITC and 100 μg/mL PI.
All samples were analysed by an Attune® Acoustic Focusing Flow Cytometer (Thermo Fischer
Scientific, Waltham, MA, USA) and the results were processed with Attune® Cytometric software

[4] = tested on: HCT116 (colorectal carcinoma cell line); experiment: MTS cell viability assay, 2D culture, HCT116; format: cell-based, human; conditions: 48 h of exposure
Description: as §1
Cell culture and maintenance
as §2, §3
human primary dermal fibroblasts.
as §4, §5, §6, §7, §8, §9, §10, §11, §12, §13, §14, §15, §16, §17, §18, §19, §20, §21, §22, §23, §24, §25, §26, §27
(§28) By analysing the cell viability as a function of log10(concentration) using Prism 8 (GraphPad
(§29) in cell viability) of each complex in the respective cell line at 48 h. The selective index (SI) for each
(§30) complex was also determined by dividing the IC50 of human fibroblasts by the respective IC50 in each
(§31) cancer cell line (allowing us to understand how much active a complex is in tumor versus normal cell).

[5] = tested on: A2780 (ovarian carcinoma cell line); experiment: MTS cell viability assay, 2D culture, A2780; format: cell-based, human; conditions: 48 h of exposure
Description: as §1
Cell culture and maintenance
as §2, §3
human primary dermal fibroblasts.
as §4, §5, §6, §7, §8, §9, §10, §11, §12, §13, §14, §15, §16, §17, §18, §19, §20, §21, §22, §23, §24, §25, §26, §27, §28, §29, §30, §31

[6] = Stability and solubility in biological medium (RPMI) by UV-vis; format: physicochemical; conditions: colorless RPMI, 50 μM, 37 °C
Description: The stability of complexes 2, 3, 5, and 7 was assessed by UV–vis spectroscopy at 0, 24, and 48 h of incubation at 37 °C.
In Figure S18, it is possible to observe the spectra of all Cu(II) complexes, where high-energy absorption bands correspond to π → π* and n → π* transitions with peaks in the 230–330 and 330–400 nm ranges, respectively, that are associated with the aromatic rings of terpyridines.[39],[49] Analyzing the spectra of complexes 2 and 3, it is possible to detect the existence of 3 bands (maximum ∼240, ∼ 290, and between 320 and 340 nm). […] Complex 7 only has 2 bands of maximum absorbance at 290 nm and between 320 and 340 nm.
Nevertheless, all Cu(II) complex solutions were freshly prepared and added immediately to cells.

HCT116DoxR cells [7] = experiment: Cell cycle progression (PI, flow cytometry); conditions: for cell cycle progression after 24 h: complexes at IC50, cisplatin 5 μM
Source text: Therefore, we have assessed the cytostatic potential of complexes 2, 3, 5, and 7, and their ability to interfere with the progression of the cell cycle using the fluorescent marker PI. Since this marker can intercalate with DNA, the measurement of the fluorescence emitted by flow cytometry makes it possible to assess the DNA content at each stage of the cell cycle (G0/G1, S, and G2/M).[67] To ensure that all the cells were in the same phase before their exposure to the complexes, a double block was carried out with thymidine, a DNA synthesis inhibitor.[67]
HCT116DoxR cell line was seeded in 6-well plates in a density of 1×10^5 cells/mL and incubated for
24 h. Afterwards, the culture medium was replaced by medium with IC50 concentrations of different
HCT116DoxR cell line was seeded in 6-well plates in a density of 1×10^5 cells/mL, incubated for 8 h in
a humidified atmosphere at 37 °C and 5% (v/v) CO2, and later synchronized in early S-phase with a 2
mM thymidine solution (Merck, Germany) for a 16 h period. Later, medium with thymidine was
replaced by fresh media and, after 8 h a second block with thymidine was performed in the same
concentrations of Cu(II) complexes. 0.1% (v/v) DMSO was used as the vehicle control while 5 μM
After treatment, cells were incubated for 9, 12,

Q: With c1ccc(-c2cc(-c3ccco3)cc(-c3ccccn3)n2)nc1 [L5] as the molecule, how does the IC50 [1] read?
A: 0.6 ± 0.02 µM

Q: What about the IC50 [2] of the same molecule?
A: > 50 µM

Q: With CC(C)(C)OO [TBHP, Tert-Butyl hydroperoxide, reference compound] as the molecule, how does the “effect of control reagent alone on pUC18” value (pUC18 plasmid DNA) read?
A: unable to induce pUC18 cleavage

Q: What does the source list for F[P-](F)(F)(F)(F)F.F[P-](F)(F)(F)(F)F.[Cl][Cu].[Cl][Cu].c1ccc(-c2cc(-c3ccnc4ccccc34)cc(-c3ccccn3)n2)nc1.c1ccc(-c2cc(-c3ccnc4ccccc34)cc(-c3ccccn3)n2)nc1 [complex 2, [Cu2Cl2(4′-(4-Quinolyl)-terpy)2](PF6)2]?
A: IC50 [1]: 0.25 ± 0.02 µM; IC50 (HCT116DoxR spheroids): 15.2 ± 0.8 µM; formation of new blood vessels after 24 h (chicken embryos): no pro- or antiangiogenic effect; formation of new blood vessels after 48 h (chicken embryos): antiangiogenic effect; fibroblast migration (% of remission) (fibroblasts): lower compared to the positive control Dox; apparent binding constant (Kapp) (EB–ct-DNA adduct): 1.23 × 10^6 M^–1; Stern–Volmer quenching constant KSV (EB–ct-DNA adduct): 2450 M⁻¹; expression of BAX compared to the DMSO control (BAX and BCL-2): decreases; expression of BCL-2 compared to the DMSO control (BAX and BCL-2): increases; IC50 [2]: 31.36 ± 0.02 µM; cells (%) early apoptosis (HCT116DoxR cells [3]): 47.3 ± 2.9%; cells (%) late apoptosis (HCT116DoxR cells [3]): 22.7 ± 4.6%; cells (%) necrosis (HCT116DoxR cells [3]): 0.3 ± 0.4%; cells (%) viable (HCT116DoxR cells [3]): 29.7 ± 6.3%; percentage of apoptosis (early + late) (HCT116DoxR cells [3]): 65 to 70%; fold increase in apoptotic cells, normalized to DMSO (HCT116DoxR cells [3]): ~6.4 fold; IC50 [4]: 0.31 ± 0.01 µM; IC50 [5]: 0.54 ± 0.07 µM; concentration at which the interaction with pDNA reaches saturation (pUC18 plasmid DNA): 25 μM; pDNA cleavage mode (pUC18 plasmid DNA): single strands; effect of NaN3 (singlet oxygen scavenger) on pDNA cleavage by the complex (pUC18 plasmid DNA): no effect; maximum absorbances after 24 or 48 h compared to 0 h (reduction of solubility) [6]: slight decrease; cell cycle progression after 12 h (HCT116DoxR cells [7]; IC50, thymidine double block): delays cell cycle progression in the G2/M phase; cell cycle progression after 24 h (HCT116DoxR cells [7]): delay the cycle in the G2/M phase

Q: Which “effect of control reagent alone on pUC18” value (pUC18 plasmid DNA) does the source give for [N-]=[N+]=[N-].[Na+] [NaN3, sodium azide, reference compound] here?
A: no effect

Q: Which IC50 [1] does the source give for c1ccc(-c2cc(-c3ccnc4ccccc34)cc(-c3ccccn3)n2)nc1 [L2] here?
A: 0.4 ± 0.02 µM

Q: What about the IC50 [2] of the same molecule?
A: > 50 µM

Q: Which IC50 [1] does the source give for c1ccc(-c2cc(-c3ccccn3)nc(-c3ccccn3)c2)nc1 [L7] here?
A: 0.5 ± 0.06 µM

Q: What about the IC50 [2] of the same molecule?
A: ~50 µM

Q: For CCn1c2ccccc2c2cc(-c3cc(-c4ccccn4)nc(-c4ccccn4)c3)ccc21.CCn1c2ccccc2c2cc(-c3cc(-c4ccccn4)nc(-c4ccccn4)c3)ccc21.F[P-](F)(F)(F)(F)F.F[P-](F)(F)(F)(F)F.[Cl][Cu].[Cl][Cu] [complex 8, [Cu2Cl2(4′-(N-Ethyl-9H-carbazol-3-yl)-terpy)2](PF6)2], which IC50 [1] is on record?
A: 0.19 ± 0.06 µM

Q: And the IC50 [2]?
A: 7.36 ± 0.04 µM

Q: What about the IC50 [4] of the same molecule?
A: 0.1 ± 0.03 µM

Q: What about the IC50 [5] of the same molecule?
A: 0.37 ± 0.06 µM

Q: Which results are given for COc1ccc2c(OC)ccc(-c3cc(-c4ccccn4)nc(-c4ccccn4)c3)c2c1 [L4]?
A: IC50 [1]: 0.4 ± 0.25 µM; IC50 [2]: 13.1 ± 3.18 µM

Q: Which results are given for COc1ccc2c(OC)ccc(-c3cc(-c4ccccn4)nc(-c4ccccn4)c3)c2c1.COc1ccc2c(OC)ccc(-c3cc(-c4ccccn4)nc(-c4ccccn4)c3)c2c1.F[P-](F)(F)(F)(F)F.F[P-](F)(F)(F)(F)F.[Cl][Cu].[Cl][Cu] [complex 4, [Cu2Cl2(4′-(4,7-Dimethoxy-1-naphthyl)-terpy)2](PF6)2]?
A: IC50 [1]: 0.16 ± 0.01 µM; IC50 [2]: 2.64 ± 0.1 µM; IC50 [4]: 0.15 ± 0.04 µM; IC50 [5]: 0.49 ± 0.1 µM

Q: With F[P-](F)(F)(F)(F)F.F[P-](F)(F)(F)(F)F.[Cl][Cu].[Cl][Cu].c1ccc(-c2cc(-c3ccccn3)nc(-c3ccccn3)c2)nc1.c1ccc(-c2cc(-c3ccccn3)nc(-c3ccccn3)c2)nc1 [complex 7, [Cu2Cl2(4′-(2-Pyridynyl)-terpy)2](PF6)2] as the molecule, how does the IC50 [1] read?
A: 0.19 ± 0.01 µM

Q: What about the IC50 (HCT116DoxR spheroids) of the same molecule?
A: 30.48 ± 0.19 µM

Q: What about the “formation of new blood vessels after 24 h” value (chicken embryos) of the same molecule?
A: no pro- or antiangiogenic effect

Q: And the “formation of new blood vessels after 48 h” value (chicken embryos)?
A: antiangiogenic effect

Q: And the “apparent binding constant (Kapp)” value (EB–ct-DNA adduct)?
A: 1.16 × 10^6 M^–1

Q: What about the “Stern–Volmer quenching constant KSV” value (EB–ct-DNA adduct) of the same molecule?
A: 2320 M⁻¹

Q: What about the “expression of BAX compared to the DMSO control” value (BAX and BCL-2) of the same molecule?
A: decreases

Q: And the “expression of BCL-2 compared to the DMSO control” value (BAX and BCL-2)?
A: increases

Q: What about the IC50 [2] of the same molecule?
A: 16.08 ± 0.05 µM

Q: What about the “cells (%) early apoptosis” value (HCT116DoxR cells [3]) of the same molecule?
A: 37.4 ± 7.4%

Q: What about the “cells (%) late apoptosis” value (HCT116DoxR cells [3]) of the same molecule?
A: 9.0 ± 2.6%

Q: And the “cells (%) necrosis” value (HCT116DoxR cells [3])?
A: 1.1 ± 0.5%

Q: And the “cells (%) viable” value (HCT116DoxR cells [3])?
A: 52.5 ± 6.7%

Q: What about the “percentage of apoptosis (early + late)” value (HCT116DoxR cells [3]) of the same molecule?
A: ~46%

Q: And the “fold increase in apoptotic cells, normalized to DMSO” value (HCT116DoxR cells [3])?
A: 5 fold

Q: And the IC50 [4]?
A: 0.23 ± 0.01 µM

Q: And the IC50 [5]?
A: 1.13 ± 0.2 µM

Q: What about the “concentration at which the interaction with pDNA reaches saturation” value (pUC18 plasmid DNA) of the same molecule?
A: 100 μM

Q: What about the pDNA cleavage mode (pUC18 plasmid DNA) of the same molecule?
A: single and double strands

Q: What about the “effect of NaN3 (singlet oxygen scavenger) on pDNA cleavage by the complex” value (pUC18 plasmid DNA) of the same molecule?
A: almost completely reversed

Q: And the “cell cycle progression after 12 h” value (HCT116DoxR cells [7]; IC50, thymidine double block)?
A: delays cell cycle progression in the G2/M phase

Q: And the “cell cycle progression after 18 h” value (HCT116DoxR cells [7]; 18 h, IC50, thymidine double block)?
A: delay in cycle progression in the G0/G1 phase

Q: And the “cell cycle progression after 24 h” value (HCT116DoxR cells [7])?
A: delay the cycle in the G2/M phase

Q: With CCn1c2ccccc2c2cc(-c3cc(-c4ccccn4)nc(-c4ccccn4)c3)ccc21 [L8] as the molecule, how does the IC50 [1] read?
A: 0.4 ± 0.04 µM

Q: And the IC50 [2]?
A: ~10 µM

Q: With F[P-](F)(F)(F)(F)F.F[P-](F)(F)(F)(F)F.[Cl][Cu].[Cl][Cu].c1ccc(-c2cc(-c3cccc4ccccc34)cc(-c3ccccn3)n2)nc1.c1ccc(-c2cc(-c3cccc4ccccc34)cc(-c3ccccn3)n2)nc1 [complex 1, [Cu2Cl2(4′-(1-Naphthyl)-terpy)2](PF6)2] as the molecule, how does the IC50 [1] read?
A: 0.12 ± 0.01 µM

Q: And the IC50 [2]?
A: 3.04 ± 0.02 µM

Q: And the IC50 [4]?
A: 0.16 ± 0.01 µM

Q: And the IC50 [5]?
A: 0.8 ± 0.05 µM

Q: What does the source list for c1ccc(-c2cc(-c3cccc4ccccc34)cc(-c3ccccn3)n2)nc1 [L1]?
A: IC50 [1]: ~0.2 µM; IC50 [2]: > 50 µM
